The values below come from patent US10123985B2, “Therapeutic strategies for treating mitochondrial disorders” (Whitehead Institute for Biomedical Research, priority 2015, dated 2018).

Assay type in all cases: cell-based
The subject of assay [1] is 143B cells. Briefly: Amino acid and TCA cycle metabolite GC-MS analysis, 143B cells. The procedure: 143B and 143B CytB cells were seeded at 400,000 cells/well in 6 well dishes overnight. The following day, cells were washed 2 times in PBS and media was changed to proliferation assay media with or without the indicated treatments. […] Soluble content was then dried under nitrogen gas. Polar samples were derivatized and measured as detailed in (Lewis). Relative metabolite abundances were determined by integrating ion peak area (Metran) and normalized to norvaline internal extraction standard.

The subject of assay [2] is 143B cells. In words: Mitochondrial oxygen consumption (Seahorse XF24), cells treated with respiration inhibitors. The following applies: ETC inhibitors plus AKB. The procedure: Oxygen consumption rates were determined on a Seahorse Bioscience Extracellular Flux Analyzer (XF24). Cells were plated in Seahorse Bioscience 24 well plates at 6E4 cells per well in 100 μL complete DMEM, allowed to attach for 1 hour, and 500 μl complete DMEM was added before overnight incubation. The following day cells were washed 2 times in assay media: DMEM without phenol red or pyruvate containing 0.5% dialyzed FBS and 0.1 mg/mL uridine at pH 7.4 and incubated in 500 μL of the same media for the assay.

In assay [3] the test system is 143B CytB cells. Briefly: Cell cycle distribution by propidium iodide flow cytometry. The settings on record: 143B CytB cells without AKB compared with AKB, 78 hours. The protocol: 143B CytB cells were incubated in untreated media or media containing AKB or 100 μM adenine for 78 hours before being washed with PBS, trypsinized, pelleted, and resuspended in 500 μL PBS. Cells were fixed by adding 4.5 mL 70% ethanol and incubated at 4° C. overnight. The following day cells were pelleted and resuspended in 1 mL PBS+0.1% (v/v) Triton X-100. RNase A and then propidium iodide (PI) were added to 0.2 mg/mL and 20 μg/mL, respectively. Samples were incubated at 37° C. for 15 minutes and filtered into a flow cytometry tube. DNA content was measured by flow cytometry (BD FACS Canto II) and analyzed (FACS Diva Software).

In assay [4] the test system is 143B CytB cells. Briefly: GC-MS of AKB and AHB concentration in the media during proliferation assay. The following applies: media of 143B CytB cells proliferating with AKB. The protocol: FIG. 1. Cytochrome B mutant 143B cybrid cells are auxotrophic for oxidized substrates that can regenerate NAD^+. (A) Proliferation rate of 143B CytB cells was determined in the presence or absence of pyruvate. (left) Cells were normalized to cell number at t=0 when media conditions were applied. (B) A major fate of pyruvate is as a substrate of lactate dehydrogenase (LDH) where it accepts electrons from NADH to produce NAD^+ and lactate. (C) α-Ketobutyrate (AKB) can act as an alternative electron acceptor substrate for LDH, yielding NAD^+ α-hydroxybutyrate (AHB). (D) Proliferation rate for 143B CytB cells in the presence or absence of AKB was determined as in (A). (E) Intracellular ratio of NAD^+/NADH was determined in 143B CytB cells in untreated media or in the presence of pyruvate (Pyr) or AKB. (F) The concentration of AKB and AHB in the media was determined by GC-MS analysis for each day of a proliferation assay of 143B CytB cells in the presence of AKB as in (D). […]
Given the chemical structure differences between AKB and pyruvate, they cannot share direct carbon-fates, thus we reasoned that AKB is likely being used predominantly as an electron acceptor and not as a carbon substrate in metabolic pathways. To verify this we measured the consumption rate of AKB and the excretion rate of the reduced product, α-hydroxybutyrate (AHB), formed upon NAD^+ regeneration (FIG. 1C). […]

Assay [5] concerns 143B cells. Briefly: Measurement of NAD+/NADH (NAD/NADH Glo) in 143B cells with respiration inhibitors. The following applies: 143B cells, ETC inhibitors plus AKB, 6 hours. The procedure:
NAD^+/NADH measurements were done using a modified version of manufacturer instructions of NAD/NADH Glo Assay (Promega). Cells were plated and treated as for proliferation assays and cell extracts were taken 6 hours after treatment. For extraction, cells were quickly washed 3 times in ice cold PBS, extracted in 100 μL ice cold lysis buffer (1% Dodecyltrimethylammonium bromide (DTAB) in 0.2 N NaOH diluted 1:1 with PBS), and immediately frozen at −80° C. To measure NADH, 20 μL of sample was moved to PCR tubes and incubated at 75° C. for 30 min, where the basic conditions will selectively degrade NAD^+. To measure NAD^+, 20 μL of the samples was moved to PCR tubes containing 20 μL lysis buffer and 20 μL 0.4 N HCl and incubated at 60° C. for 15 min, where acidic conditions will degrade NADH. Following incubations, samples were allowed to equilibrate to room temperature and then quenched by neutralizing with 20 μL 0.25 M Tris in 0.2 N HCl (NADH) or 20 μL 0.5 M Tris base (NAD^+). Manufacturer instructions were followed thereafter to measure NAD^+/NADH.

Turning to `CCC(=O)C(=O)O` [AKB, α-ketobutyrate], the “Aspartate level with AKB treatment” value in the assay with 143B cells [1] (143B CytB cells and inhibitor-treated 143B cells, relative to untreated cells) is “restored aspartate to levels comparable to, or higher than, untreated cells”. The Intracellular aspartate levels entry in the assay with 143B cells [1] (rotenone treated 143B cells, 24 hours, AKB or 1 mM asparagine) is listed as “increased intracellular aspartate”. Moreover, in the assay with 143B cells [2], the O2 consumption entry was “no effect on O2 consumption”. Further, the “Cell cycle distribution (DNA content)” value in the assay on 143B CytB cells [3] is “do not obviously arrest at a specific stage of the cell cycle”. In addition, in the assay with 143B CytB cells [4], the “Consumption rate of AKB versus excretion rate of AHB” value is “the consumption rate of AKB matched the excretion rate of AHB”. Further, the “Cellular NAD+/NADH ratio” value in the assay on 143B cells [5] is on record as “restored NAD^+/NADH”.
